Values belong to the molecule of their own block, whether it stands above or below them.
Columns and labels:
[1] = test system: human developing cerebral cortex organoids; assay: Toxin screening of BPA in the 12-well culture system, proliferation of neuronal precursor cells; type: cell-based; details: different concentrations of BPA
Protocol: Culture conditions were systemically tested to optimize protocols. Additionally, screening was performed to test the effects of Bisphenol A (BPA) on neurogenesis in the organoid system.
Toxin screening was performed using the 12-well culture system. Images of the effect of different concentrations of BPA on human developing cerebral cortex organoids were taken (data not shown).

[2] = test system: forebrain organoids; assay: Long-term BPA treatment of forebrain organoids (days 14 to 28), relative VZ thickness; type: cell-based, human; details: treatment from days 14 to 28; forebrain organoids in SpinΩ
Protocol: (§1) The apparent homogeneity of forebrain organoids, small volume per condition, and multi-well format of SpinΩ comprise a platform that is amenable to chemical compound testing. As a proof of principle, we tested the effect of Bisphenol A (BPA), which is commonly found in household plastic products and is known to affect rodent neural development.
Forebrain organoids were grown using the protocol described above. For the long-term BPA treatment experiment, forebrain organoids at day 14 from the same batch were distributed randomly into separate wells within SpinQ and treated with different concentrations of BPA (Sigma). BPA was dissolved in sequential dilutions in differentiation media with 0.05% methanol, which was also added in the control condition. Media containing BPA was replaced every other day until analysis on day 28. […] Quantification was conducted by investigators blind to culture conditions.
Organoids grown from the “intrinsic protocol” and forebrain protocol were immunostained for SOX2, TUJ1 and CTIP2 at days 14 and 28. […] The length for VZ and outer layer was measured in ImageJ™ software. […] Relative thicknesses for VZ, SVZ and CP were calculated by the ratio to total thickness from ventricular to pial surface.

[3] = test system: NPCs in forebrain organoids; assay: Acute BPA treatment of forebrain organoids (24 hr), EdU pulse-labeling and PH3 immunostaining; type: cell-based, human; details: acute treatment with higher BPA concentrations for 24 hr
Protocol: as §1
For the acute BPA treatment experiment, forebrain organoids were grown to day 28 and treated with corresponding concentrations of BPA for 24 hr. At day 29, the culture media was replaced with fresh media and washed 3 times to remove residual BPA. Organoids were then pulsed with 10 μM EdU for 2 hr. The media was then replaced and organoids were washed 3 times with fresh media. At day 30, organoids were fixed for immunohistochemistry and EdU detection using Click-iT® EdU Alexa Fluor® 488 Imaging Kit (ThermoFisher C10337) according to the manufacturer's manual, followed by immunostaining for SOX2 and PH3. Images were acquired with a Zeiss' LSM 700 Confocal system at 25× magnification. Quantification was performed by counting the number of EdU and PH3+ nuclei within SOX2+ ventricular structures that were defined by neural tube-like morphology. EdU and PH3 densities were normalized to the area of ventricular structures measured in ImageJ software. Quantification was conducted by investigators blind to culture conditions.

[4] = test system: forebrain organoids; assay: Signaling-molecule treatment of embryoid bodies during the Matrigel stage, activated caspase-3 (CAS3) immunostaining; type: cell-based, human; details: for number of CAS3+ cells at day 14: combined treatment with the three factors CHIR99021, WNT3A and SB-431542 during the Matrigel stage
Source text: To reduce tissue heterogeneity, we pre-patterned embryoid bodies to the fate of a specific brain region. We first treated human iPSCs with dual SMAD inhibitors (dorsomorphin and A-83) for 7 days and then embedded embryoid bodies in Matrigel for another 7 days, followed by Matrigel removal and spinning in SpinΩ (FIG. 12). Compared to the “intrinsic protocol,” we could reliably generate organoids from multiple iPSC lines with reduced heterogeneity in organoid shape and size (data not shown). However, there was significant cell death within organoids, as shown by activated caspase-3 (CAS3) immune-staining (data not shown). We then tested combinations of different signaling molecules for various durations. […] Later, we determined that the WNT3A contribution was minimal, likely because WNT3A and CHIR99021 activate the same downstream signaling pathway (data not shown). At day 14, well-defined polarized neuroepithelium-like structures resembled neural tubes, with a nearly pure population of NESTIN+SOX2+ NPCs and expression of adherent junction markers (b-CATENIN and PKC1) and proliferation marker phosphohistone H3 (PH3) near the ventricular surface (data not shown). […] Upon spinning in SpinΩ, organoids developed into multi-layer stratified structures, composed of SOX2+NPCs, TBR2+ intermediate progenitor cells (IPCs), and CTIP2+ neurons (data not shown). With a small volume, it became affordable to supplement media with growth factors at later stages (data not shown).
To generate forebrain-specific organoids, human iPSC colonies were detached 7 days after passage with Collagenase Type IV, washed with fresh stem cell medium and cultured in a 15 ml conical tube. On day 1, detached and washed iPSC colonies were transferred to an Ultra-Low attachment 6-well plate (Corning Costar), containing 3 ml of stem cell medium (without FGF-2), plus 2 μM Dorsomorphine (Sigma) and 2 μM A83-01 (Tocris). On days 5-6, half of the medium was replaced with induction medium consisting of DMEM:F12, 1×N2 Supplement (Invitrogen), 10 μg/ml Heparin (Sigma), 1× Penicillin/Streptomycin, 1× Non-essential Amino Acids, 1× Glutamax, 4 ng/ml WNT-3A (R&D Systems), 1 μM CHIR99021 (Cellagentech), and 1 μM SB-431542 (Cellagentech). On day 7, organoids were embedded in Matrigel (BD Biosciences) and continued to grow in induction medium for 6 more days. On day 14, embedded organoids were mechanically dissociated from Matrigel by pipetting up and down onto the plate with a 5 ml pipette tip. Typically, 10-20 organoids were transferred to each well of a 12-well spinning bioreactor (FIGS. 1-11) containing differentiation medium, consisting of DMEM:F12, 1×N2 and B27 Supplements (Invitrogen), 1× Penicillin/Streptomycin, 1×2-Mercaptoenthanol, 1× Non-essential Amino Acids, 2.5 μg/ml Insulin (Sigma). […]

- relative VZ thickness at day 28 [2]: dose-dependent decrease
- density of PH3+ NPCs [3]: decreased density
- density of EdU+ NPCs ([3]; then EdU pulse): decreased density
Molecule: CC(C)(c1ccc(O)cc1)c1ccc(O)cc1 [BPA, Bisphenol A]
- proliferation rate of neuronal precursor cells in human organoids [1]: dose-dependent effect

Molecule: Cc1c[nH]c(-c2cnc(NCCNc3ccc(C#N)cn3)nc2-c2ccc(Cl)cc2Cl)n1 [CHIR99021]
- number of CAS3+ cells at day 14 [4]: drastically reduced

Molecule: NC(=O)c1ccc(-c2nc(-c3ccc4c(c3)OCO4)c(-c3ccccn3)[nH]2)cc1 [SB-431542]
- number of CAS3+ cells at day 14 [4]: drastically reduced

B1: WNT3A: recombinant WNT3A protein (protein, UniProt P56704 19-352, looked up)
Protein Wnt-3a: SYPIWWSLAVGPQYSSLGSQPILCASIPGLVPKQLRFCRNYVEIMPSVAEGIKIGIQECQHQFRGRRWNCTTVHDSLAIFGPVLDKATRESAFVHAIASAGVAFAVTRSCAEGTAAICGCSSRHQGSPGKGWKWGGCSEDIEFGGMVSREFADARENRPDARSAMNRHNNEAGRQAIASHMHLKCKCHGLSGSCEVKTCWWSQPDFRAIGDFLKDKYDSASEMVVEKHRESRGWVETLRPRYTYFKVPTERDLVYYEASPNFCEPNPETGSFGTRDRTCNVSSHGIDGCDLLCCGRGHNARAERRREKCRCVFHWCCYVSCQECTRVYDVHTCK
- number of CAS3+ cells at day 14 [4]: drastically reduced
- contribution to the reduction of CAS3+ cells ([4]; within the three-factor treatment, WNT3A and CHIR99021 activate the same downstream pathway): minimal

From patent publication US11053468B2, “Multiwell cell culture system having rotating shafts for mixing culture media and method of use thereof” (The Johns Hopkins University, priority 2015, dated 2021)
